For 8 compounds, GI50 results are on record in ChEMBL document CHEMBL4837228, “Generation and Biological Evaluation of Degraded Derivatives of the Three E/Z-Isomers of Yaku'amide B” (2021).

The test concerns MCF7. In words: Growth inhibition of human MCF7 cells for 48 hrs by sulforhodamine B assay. It is filed as functional.

Broadly, the GI50 is the concentration at which growth is held to half of that of the control. Low readings indicate more potent growth inhibition, high ones less potent growth inhibition.

In the case of `CC/C(C)=C(\NC(=O)[C@H](C)NC(=O)/C(NC(=O)[C@@H](NC(=O)C(C)(C)C(=O)[C@@H](C)CC(C)C)[C@](C)(O)CC)=C(\C)CC)C(=O)N[C@@H](C(=O)N[C@@H](C(=O)N[C@@H](C(=O)N[C@H](C(=O)N/C(C(=O)N[C@H](C)C(=O)N[C@@H](C(=O)N[C@H](C(=O)NC(C(=O)N[C@H](CN(C)C)C(C)C)=C(C)C)C(C)C)C(C)C)=C(\C)CC)C(C)(C)O)C(C)(C)O)[C@@H](C)CC)C(C)C`, it took 57.4 nM to inhibit growth by half (GI50). Under `CC/C(C)=C(\NC(=O)[C@@H](NC(=O)[C@H](NC(=O)[C@H](NC(=O)[C@H](NC(=O)/C(NC(=O)[C@H](C)NC(=O)/C(NC(=O)[C@@H](NC(=O)C(C)(C)C(=O)[C@@H](C)CC(C)C)[C@](C)(O)CC)=C(/C)CC)=C(/C)CC)C(C)C)[C@@H](C)CC)C(C)(C)O)C(C)(C)O)C(=O)N[C@H](C)C(=O)N[C@@H](C(=O)N[C@H](C(=O)NC(C(=O)N[C@H](CN(C)C)C(C)C)=C(C)C)C(C)C)C(C)C` stands 25.4 nM; under `CC/C(C)=C(\NC(=O)[C@H](C)NC(=O)/C(NC(=O)[C@@H](NC(=O)C(C)(C)C(=O)[C@@H](C)CC(C)C)[C@](C)(O)CC)=C(/C)CC)C(=O)N[C@@H](C(=O)N[C@@H](C(=O)N[C@@H](C(=O)N[C@H](C(=O)N/C(C(=O)N[C@H](C)C(=O)N[C@@H](C(=O)N[C@H](C(=O)NC(C(=O)N[C@H](CN(C)C)C(C)C)=C(C)C)C(C)C)C(C)C)=C(/C)CC)C(C)(C)O)C(C)(C)O)[C@@H](C)CC)C(C)C`, 24.6 nM; under `CC/C(C)=C(\NC(=O)[C@@H](NC(=O)[C@H](NC(=O)[C@H](NC(=O)[C@H](NC(=O)/C(NC(=O)[C@H](C)NC(=O)/C(NC(=O)[C@@H](NC(=O)C(C)(C)C(=O)[C@@H](C)CC(C)C)[C@](C)(O)CC)=C(\C)CC)=C(/C)CC)C(C)C)[C@@H](C)CC)C(C)(C)O)C(C)(C)O)C(=O)N[C@H](C)C(=O)N[C@@H](C(=O)N[C@H](C(=O)NC(C(=O)N[C@H](CN(C)C)C(C)C)=C(C)C)C(C)C)C(C)C`, 18.2 nM.

Take `CC/C(C)=C(\NC(=O)[C@H](C)NC(=O)/C(NC(=O)CNC(=O)C(C)(C)C(=O)[C@@H](C)CC(C)C)=C(/C)CC)C(=O)N[C@@H](C(=O)N[C@@H](C(=O)N[C@@H](C(=O)N[C@H](C(=O)N/C(C(=O)N[C@H](C)C(=O)N[C@@H](C(=O)N[C@H](C(=O)NC(C(=O)N[C@H](CN(C)C)C(C)C)=C(C)C)C(C)C)C(C)C)=C(/C)CC)C(C)(C)O)C(C)(C)O)[C@@H](C)CC)C(C)C`: the concentration for 50% growth inhibition (GI50) worked out at 47.7 nM. With `CC/C(C)=C(\NC(=O)[C@@H](NC(=O)[C@H](NC(=O)[C@H](NC(=O)[C@H](NC(=O)/C(NC(=O)[C@H](C)NC(=O)/C(NC(=O)CNC(=O)C(C)(C)C(=O)[C@@H](C)CC(C)C)=C(/C)CC)=C(/C)CC)C(C)C)[C@@H](C)CC)C(C)(C)O)C(C)(C)O)C(=O)N[C@H](C)C(=O)N[C@@H](C(=O)N[C@H](C(=O)NC(C(=O)N[C@H](CN(C)C)C(C)C)=C(C)C)C(C)C)C(C)C`, the GI50 came to 28.2 nM. `CC/C(C)=C(\NC(=O)CNC(=O)C(C)(C)C(=O)[C@@H](C)CC(C)C)C(=O)N[C@@H](C)C(=O)N/C(C(=O)N[C@@H](C(=O)N[C@@H](C(=O)N[C@@H](C(=O)NCC(=O)N/C(C(=O)N[C@H](C)C(=O)N[C@@H](C(=O)N[C@H](C(=O)NC(C(=O)N[C@H](CN(C)C)C(C)C)=C(C)C)C(C)C)C(C)C)=C(\C)CC)C(C)(C)O)[C@@H](C)CC)C(C)C)=C(/C)CC` displayed a GI50 of 304 nM.

For the compound `CC/C(C)=C(\NC(=O)CNC(=O)C(C)(C)C(=O)[C@@H](C)CC(C)C)C(=O)N[C@@H](C)C(=O)N/C(C(=O)N[C@@H](C(=O)N[C@@H](C(=O)N[C@@H](C(=O)N[C@H](C(=O)N/C(C(=O)N[C@H](C)C(=O)N[C@@H](C(=O)N[C@H](C(=O)NC(C(=O)N[C@H](CN(C)C)C(C)C)=C(C)C)C(C)C)C(C)C)=C(\C)CC)C(C)(C)O)C(C)(C)O)[C@@H](C)CC)C(C)C)=C(/C)CC`, the GI50 stood at 26.8 nM.
